Experiment: xn = mol fraction of the nth substance listed
Details: for surface tension liquid-gas: Wilhelmy plates; for viscosity / mass density: 101 kPa, Liquid; for viscosity: Capillary tube (Ostwald / Ubbelohde) method; for mass density: Vibrating tube method

CC(=O)[O-].CCn1cc[n+](C)c1 [1-ethyl-3-methylimidazolium acetate] + CCCO
Details	mass density [kg/m3]	surface tension liquid-gas [mN/m]	viscosity [mPa·s]
288.15 K, x1 = 0.1017	869.4	25.8	4.866
288.15 K, x1 = 0.2004	915.48	27.4	7.99
288.15 K, x1 = 0.3001	953.82	29.7	13.36
288.15 K, x1 = 0.3998	986.05	31.7	22.26
288.15 K, x1 = 0.4997	1013.52	33.7	36.38
288.15 K, x1 = 0.5996	1037.16	35.6	57.47
288.15 K, x1 = 0.6998	1057.65	37.7	90.15
288.15 K, x1 = 0.8002	1075.6	40.2	135
288.15 K, x1 = 0.8991	1090.97	43.2	196.8
288.15 K, x1 = 1	1105.2	47.7	283.8
298.15 K, x1 = 0.1017	862.03	25.2	3.822
298.15 K, x1 = 0.2004	908.4	26.5	6.163
298.15 K, x1 = 0.3001	946.94	29.2	9.963
298.15 K, x1 = 0.3998	979.34	31	15.81
298.15 K, x1 = 0.4997	1006.95	33.1	24.44
298.15 K, x1 = 0.5996	1030.7	34.7	36.48
298.15 K, x1 = 0.6998	1051.29	37.2	53.65
298.15 K, x1 = 0.8002	1069.33	39.7	75.63
298.15 K, x1 = 0.8991	1084.89	42.7	103.9
298.15 K, x1 = 1	1099.03	47.1	139
308.15 K, x1 = 0.1017	854.63	24.7	3.038
308.15 K, x1 = 0.2004	901.33	25.8	4.878
308.15 K, x1 = 0.3001	940.1	28.7	7.657
308.15 K, x1 = 0.3998	972.66	30.7	11.7
308.15 K, x1 = 0.4997	1000.41	32.7	17.3
308.15 K, x1 = 0.5996	1024.28	34.2	24.75
308.15 K, x1 = 0.6998	1044.96	36.6	34.59
308.15 K, x1 = 0.8002	1063.09	39.2	46.49
308.15 K, x1 = 0.8991	1078.75	42.2	60.98
308.15 K, x1 = 1	1092.93	46.6	77.32
318.15 K, x1 = 0.1017	847.19	23.9	2.461
318.15 K, x1 = 0.2004	894.27	25.3	3.952
318.15 K, x1 = 0.3001	933.29	28.5	6.043
318.15 K, x1 = 0.3998	966.03	30.2	8.961
318.15 K, x1 = 0.4997	993.92	32.2	12.78
318.15 K, x1 = 0.5996	1017.9	33.3	17.58
318.15 K, x1 = 0.6998	1038.68	36.1	23.68
318.15 K, x1 = 0.8002	1056.89	38.8	30.86
318.15 K, x1 = 0.8991	1072.62	41.8	37.98
318.15 K, x1 = 1	1086.86	46.1	47.37
328.15 K, x1 = 0.1017	839.68	23	2.018
328.15 K, x1 = 0.2004	887.21	25	3.268
328.15 K, x1 = 0.3001	926.51	27.9	4.878
328.15 K, x1 = 0.3998	959.44	30	7.05
328.15 K, x1 = 0.4997	987.48	31.7	9.766
328.15 K, x1 = 0.5996	1011.58	33.1	13.01
328.15 K, x1 = 0.6998	1032.45	35.8	17.05
328.15 K, x1 = 0.8002	1050.74	38.1	21.36
328.15 K, x1 = 0.8991	1066.53	41.4	25.84
328.15 K, x1 = 1	1080.82	45.9	31.29
338.15 K, x1 = 0.1017	832.08	22.3	1.68
338.15 K, x1 = 0.2004	880.13	24	2.686
338.15 K, x1 = 0.3001	919.75	27.3	3.946
338.15 K, x1 = 0.3998	952.89	29.5	5.672
338.15 K, x1 = 0.4997	981.08	31.3	7.675
338.15 K, x1 = 0.5996	1005.3	32.6	9.978
338.15 K, x1 = 0.6998	1026.26	35.5	12.68
338.15 K, x1 = 0.8002	1044.63	37.9	15.57
338.15 K, x1 = 0.8991	1060.48	41.2	18.49
338.15 K, x1 = 1	1074.83	45.4	21.85
348.15 K, x1 = 0.1017	824.34	21.5	1.413
348.15 K, x1 = 0.2004	873.02	23.6	2.26
348.15 K, x1 = 0.3001	912.99	27.1	3.292
348.15 K, x1 = 0.3998	946.36	29.3	4.651
348.15 K, x1 = 0.4997	974.71	30.8	6.175
348.15 K, x1 = 0.5996	999.06	31.8	7.866
348.15 K, x1 = 0.6998	1020.12	34.5	9.81
348.15 K, x1 = 0.8002	1038.57	37.6	11.81
348.15 K, x1 = 0.8991	1054.49	41	13.78
348.15 K, x1 = 1	1068.88	45.1	16.01

— the NIST ThermoML archive (doi:10.1021/acs.jced.5b01023)
